Laboratory results published in PMC10901772, “Cytotoxic naphtho- and benzofurans from an endophytic fungus Epicoccum nigrum Ann-B-2 associated with Annona squamosa fruits” (Scientific Reports, 2024).
≈ marks a conversion by molar mass, not a printed value. Entries after “also recorded” stand apart in the source; their conditions may differ. Where two headings read alike, the source gives them in different places.

Columns and labels:
Type in all cases: cell-based
[1] = tested on: Rhodotorula glutinis [DSM 10134]; assay: MIC, 96-well plate serial dilution assay
[2] = tested on: human endocervical adenocarcinoma (KB3.1); assay: In vitro cytotoxicity, MTT assay; conditions: KB 3-1, KB3.1, MTT
Method: (§1) In vitro cytotoxicity studies (data expressed in the form of IC50 values) were performed over a concentration range between 1 and 37 µg/mL on a panel of seven cancer cell lines including human endocervical adenocarcinoma (KB3.1), mouse fibroblasts (L929), lung cancer (A549), squamous cancer (A431), prostate cancer (PC-3), breast cancer (MCF-7), and ovary cancer (SK-OV-3) using the MTT assay as previously reported.

mouse fibroblasts (L929) = assay: In vitro cytotoxicity, MTT assay
Method: as §1

[3] = tested on: Candida albicans [DSM 1665]; assay: MIC, 96-well plate serial dilution assay
[4] = tested on: Mycobacterium smegmatis [ATCC 700084]; assay: MIC, 96-well plate serial dilution assay
[5] = tested on: Staphylococcus aureus [DSM 346]; assay: MIC, 96-well plate serial dilution assay
[6] = tested on: Mucor hiemalis [DSM 2656]; assay: MIC, 96-well plate serial dilution assay
[7] = tested on: remaining strains (S. aureus, M. smegmatis, M. hiemalis, C. albicans, R. glutinis); assay: MIC serial dilution assay, strains other than Bacillus subtilis; conditions: all tested strains except Bacillus subtilis
[8] = tested on: panel of seven cancer cell lines; assay: In vitro cytotoxicity, MTT assay, whole panel; conditions: for antiproliferative / anticancer activity (in words): panel of cancer cell lines; for IC50: panel of seven different cancer cell lines, read-out: IC50 values, range over the panel
Method: as §1

[9] = tested on: Bacillus subtilis [DSM 10]; assay: MIC, 96-well plate serial dilution assay; conditions: for MIC: DSM10, concentration range 67 to 0.5 µg/mL
lung cancer (A549) = assay: In vitro cytotoxicity, MTT assay; conditions: Homo sapiens
Method: as §1

prostate cancer (PC-3) = assay: In vitro cytotoxicity, MTT assay; conditions: for sensitivity of PC-3 (in words): PC-3 (prostate cancer)
Method: as §1

ovary cancer (SK-OV-3) = assay: In vitro cytotoxicity, MTT assay; conditions: Homo sapiens
Method: as §1

breast cancer (MCF-7) = assay: In vitro cytotoxicity, MTT assay; conditions: Homo sapiens, MCF7
Method: as §1

squamous cancer (A431) = assay: In vitro cytotoxicity, MTT assay; conditions: Homo sapiens, A-431
Method: as §1

[10] = DSM10134, concentration range 67 to 0.5 µg/mL, read-out: MIC
[11] = DSM1665, concentration range 67 to 0.5 µg/mL, read-out: MIC
[12] = Mycolicibacterium smegmatis, ATCC700084, concentration range 67 to 0.5 µg/mL, read-out: MIC
[13] = DSM346, concentration range 67 to 0.5 µg/mL, read-out: MIC
[14] = DSM2656, concentration range 67 to 0.5 µg/mL, read-out: MIC
[15] = concentration range 67 to 0.5 µg/mL

Row | Compound | MIC [1, 10] [µg/mL] | IC50 [2] [µM] | IC50 (mouse fibroblasts (L929)) [µM] | MIC [3, 11] [µg/mL] | MIC [4, 12] [µg/mL] | MIC [5, 13] [µg/mL] | MIC [6, 14] [µg/mL] | antiproliferative / anticancer activity (in words) [8] | MIC [9] [µg/mL] | IC50 (lung cancer (A549); A549, MTT, read-out: IC50) [µM] | IC50 (prostate cancer (PC-3); PC-3, MTT, read-out: IC50) [µM] | IC50 (ovary cancer (SK-OV-3); SKOV-3, MTT, read-out: IC50) [µM] | IC50 (breast cancer (MCF-7); MCF-7, MTT, read-out: IC50) [nM] | IC50 (squamous cancer (A431); A431, MTT, read-out: IC50) [µM] | IC50 [8] [µM] | further results
1 | Cc1c2c(c3c(C)c(O)c(C(=O)O)c(O)c3c1O)COC2 [Compound 1, epicoccofuran A] | > 67 | 16 | 12 | > 67 | > 67 | > 67 | > 67 | weak anticancer activity | 33.3 (≈ 115 µM) | – | – | – | – | – | – | antimicrobial activity against the remaining strains (in words) [7]: no potential activity; antimicrobial activity against Bacillus subtilis (in words) [9]: moderate activity; also recorded: moderate antimicrobial activities; potency against Bacillus relative to the standard oxytetracycline [9]: almost half
2 | COC1OC(C2OCc3c(C)c(O)c(O)c(O)c32)c2c(O)c(O)c(O)c(C)c21 (stereo not shown) [Compound 2, flavimycin C] | > 67 | 7.8 | 6.7 | > 67 | > 67 | > 67 | > 67 | highest potency; also recorded: promising anticancer activities | 33.3 (≈ 84.9 µM) | 9.2 | > 100 | 17 | 2700 | 8.2 | 1.3 to 12 | sensitivity of PC-3 (in words) (prostate cancer (PC-3)): insensitive; antimicrobial activity against the remaining strains (in words) [7]: no potential activity; antimicrobial activity against Bacillus subtilis (in words) [9]: moderate activity; also recorded: moderate antimicrobial activities; potency against Bacillus relative to the standard oxytetracycline [9]: almost half
3 | Cc1c(O)c(O)c2c(c1C=O)[C@@H]1O[C@H](O2)c2c(C)c(O)c(O)c(O)c2C1=O [Compound 3, epicocconigrone A] | > 67 | 2.7 | 14 | > 67 | > 67 | > 67 | > 67 | active against all tested cell lines; also recorded: promising anticancer activities | 66.6 (≈ 178 µM) | 10 | 8 | 12 | 2400 | 7.8 | 1.3 to 12 | –
4 | Cc1c(O)c(O)c(O)c(C=O)c1-c1cc2c(C=O)c(C)c(O)c(O)c2o1 [Compound 4, epicoccolide B] | > 67 | 21 | 19 | > 67 | > 67 | > 67 | > 67 | weak anticancer activity | 66.6 (≈ 186 µM) | – | – | – | – | – | – | –
5 | Cc1c(O)c(O)c(O)c2c1C(=O)OC2 [Compound 5, epicoccone] | > 67 | 6.1 | 7.5 | > 67 | > 67 | > 67 | > 67 | active against all tested cell lines; also recorded: promising anticancer activities | > 67 | 6.8 | 8 | 8.2 | 3800 | 7.3 | 1.3 to 12 | –
6 | Cc1c(O)c(O)c(O)c2c1COC2 [Compound 6, 4,5,6-trihydroxy-7-methyl-1,3-dihydroisobenzofuran] | > 67 | 3.4 | 2.8 | > 67 | > 67 | > 67 | > 67 | highest potency; also recorded: promising anticancer activities | > 67 | 6.3 | > 100 | 7.8 | 1300 | 7.3 | 1.3 to 12 | sensitivity of PC-3 (in words) (prostate cancer (PC-3)): insensitive
7 | C/C(=C\c1csc(C)n1)[C@@H]1C[C@@H]2O[C@]2(C)CCC[C@H](C)[C@H](O)[C@@H](C)C(=O)C(C)(C)[C@@H](O)CC(=O)O1 [Epothilone B, reference compound] | – | – | – | – | – | – | – | – | – | – | – | – | – | – | – | IC50 (lung cancer (A549); A549): 5e-05 µM; IC50 (prostate cancer (PC-3)): 9e-05 µM; IC50 (ovary cancer (SK-OV-3)): 9e-05 µM; IC50 (breast cancer (MCF-7)): 0.07 nM; IC50 (squamous cancer (A431)): 6e-05 µM
8 | NC[C@H]1O[C@H](O[C@H]2[C@H](O)[C@@H](O[C@H]3O[C@H](CO)[C@@H](O)[C@H](N)[C@H]3O)[C@H](N)C[C@@H]2N)[C@H](O)[C@@H](O)[C@@H]1O [Kanamycin, reference compound] | – | – | – | – | – | – | – | – | – | – | – | – | – | – | – | MIC [4, 15]: 1.7^ K µg/ml
9 | C[C@@H]1[C@H](O)[C@@H](C)/C=C/C=C/CC/C=C/C=C/C=C/C=C/C(O[C@H]2O[C@H](C)[C@@H](O)[C@H](N)[C@@H]2O)CC2O[C@](O)(CC(O)C(O)CCC(O)CC(O)CC(O)CC(=O)O[C@H]1C)CC(O)C2C(=O)O (stereo partly shown) [Nystatin, reference compound] | – | – | – | – | – | – | – | – | – | – | – | – | – | – | – | MIC [1, 15]: 2.1^N µg/ml; MIC [3, 15]: 2.1^N µg/ml; MIC [6, 15]: 2.1^N µg/ml
10 | CN(C)[C@@H]1C(O)=C(C(N)=O)C(=O)[C@@]2(O)C(O)=C3C(=O)c4c(O)cccc4[C@@](C)(O)[C@H]3[C@H](O)[C@@H]12 [Oxytetracycline, reference compound] | – | – | – | – | – | – | – | – | 16.6 (≈ 36.1 µM) | – | – | – | – | – | – | –
11 | Gentamycin [reference compound] | – | – | – | – | – | – | – | – | – | – | – | – | – | – | – | MIC [5, 15]: 0.21^G µg/ml
